Results reported in ChEMBL document CHEMBL4715810, “Treatment of Metabolic Disorders with CB-1 Receptor Inverse Agonists” (ACS Med Chem Lett, 2016).
pEC50: −log10 of the molar value.

Legend:
Cannabinoid receptor 2 = Cannabinoid receptor 2 (Homo sapiens, UniProt P34972); assay: Inverse agonist activity at human CB2 receptor expressed in HEK293 cells assessed as forskolin-stimulated cAMP accumulation measured after 30 mins by HTRF assay; format: functional, cell-based
Cannabinoid receptor 1 = Cannabinoid receptor 1 (Homo sapiens, UniProt P21554); assay: Inverse agonist activity at human CB1 receptor expressed in HEK293 cells assessed as forskolin-stimulated cAMP accumulation measured after 30 mins by HTRF assay; format: functional, cell-based
Sequence of Cannabinoid receptor 1 (P21554 whole entry): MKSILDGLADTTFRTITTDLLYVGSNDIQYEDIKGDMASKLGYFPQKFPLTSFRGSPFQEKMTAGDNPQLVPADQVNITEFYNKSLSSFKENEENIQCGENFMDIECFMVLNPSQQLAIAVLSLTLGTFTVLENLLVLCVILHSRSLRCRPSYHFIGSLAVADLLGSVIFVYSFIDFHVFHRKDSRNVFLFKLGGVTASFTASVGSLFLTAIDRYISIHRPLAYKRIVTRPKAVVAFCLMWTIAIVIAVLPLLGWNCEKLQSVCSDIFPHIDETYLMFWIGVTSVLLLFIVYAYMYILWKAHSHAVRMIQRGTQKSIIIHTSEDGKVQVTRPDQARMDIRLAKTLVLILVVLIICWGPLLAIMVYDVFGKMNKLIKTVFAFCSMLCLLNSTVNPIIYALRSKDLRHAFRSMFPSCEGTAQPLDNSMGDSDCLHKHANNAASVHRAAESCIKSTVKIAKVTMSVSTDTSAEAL

Sequence of Cannabinoid receptor 2 (P34972 whole entry): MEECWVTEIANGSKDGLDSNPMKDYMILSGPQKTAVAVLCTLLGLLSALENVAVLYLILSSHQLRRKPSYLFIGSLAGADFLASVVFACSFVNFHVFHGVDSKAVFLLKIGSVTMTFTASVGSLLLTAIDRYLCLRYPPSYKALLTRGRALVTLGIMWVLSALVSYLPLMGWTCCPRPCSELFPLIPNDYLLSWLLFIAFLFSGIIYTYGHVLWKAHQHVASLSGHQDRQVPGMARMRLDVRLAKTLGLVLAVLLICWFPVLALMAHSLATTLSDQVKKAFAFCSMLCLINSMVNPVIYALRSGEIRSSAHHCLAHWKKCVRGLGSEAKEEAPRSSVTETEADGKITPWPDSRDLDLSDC

| pEC50 (Cannabinoid receptor 2) | pEC50 (Cannabinoid receptor 1) | SMILES |
| --- | --- | --- |
| < 5.00 | – | O=S(=O)(N1CCC(Nc2cnnc3ccc(C(O)(c4ccc(Cl)cc4)c4ccc(Cl)cc4)cc23)CC1)C(F)(F)F |
| < 5.00 | – | O=C(O)c1ccccc1S(=O)(=O)N1CCC(Nc2cnnc3ccc(C(c4ccc(Cl)cc4)c4ccc(Cl)cc4)cc23)CC1 |
| < 5.00 | 7.00 | Clc1ccc(C(c2ccc(Cl)cc2)c2ccc3nncc(NC4CCC(Nc5ccccc5)CC4)c3c2)cc1 (centres undefined) |
